Patent publication US20090172826A1, “Model System for TCR (ZETA) Chain Downregulation” (priority 2003, published 2009)

What was measured:
[1] = tested on: splenocytes isolated from P. gingivalis-treated mice; assay type: cell-based, mouse; details: NH4Cl 20 mM 20 h or bafilomycin A1 5 h at 37° C.
TCR ζ chain [2] = assay: In vitro incubation of isolated T cells and non-T cells with IFN-γ or anti-IFN-γ, ζ chain FACS; assay type: cell-based, mouse; details: IFN-γ 50 U/ml, 24 h, with or without control non-T cells
Procedure: T cells alone or mixed with the indicated non-T cell populations were incubated in vitro for 24 h in the presence or absence of IFN-γ (50 U/ml). Cells were stained for cell surface Thy 1.2 and for total ζ chain expression, as described in FIG. 1A-F, and ζ chain expression is shown.
To examine whether IFN-γ directly or indirectly affects all T cell populations in the spleen, T cells from control mice were exposed to IFN-γ in the presence or absence of control non-T cell populations in vitro.

splenic T cells [3] = assay: CFSE division of splenic T cells from treated mice after ex vivo activation; assay type: in vivo, mouse; details: BALB/c mice
splenic T cells [4] = assay: BrdU incorporation in Thy1.2+ splenic T cells from treated mice after ex vivo activation; set-up: species or system mouse; details: for percentage of BrdU+ T cells of total T cells: BALB/c mice
TCR ζ chain [5] = assay: TCR ζ chain expression in T cells of antigen-treated mice (immunoblot, FACS, confocal); assay type: in vivo, mouse; details: full repeated-injection regimen, wild-type mice, versus control mice
IL-10 = IL-10 in chamber exudates by ELISA; assay type: in vivo, mouse; details: 24 h after the third injection; P. gingivalis- versus OVA-treated mice
Procedure: (§1) The results are presented as the mean value of the individual mice in each treatment group. (n.d.) not detectable values of IFN-γ in the OVA-treated mice.
(§2) Serum samples were collected at day +9 of the experiment and analyzed by ELISA for the levels of P.g.- or OVA-specific IgG1 and IgG2a antibodies as previously described [Houri-Haddad et al. (2000) id ibid.]. IFN-γ and IL-10 concentrations in the chamber exudates were determined at 4 and 24 h, respectively after the third P.g. injection by two-site ELISA [Frolov, I. et al. (1998) Immunology 93, 323-8].

IFN-γ = IFN-γ in chamber exudates by ELISA; assay type: in vivo, mouse; details: 4 h after the third injection
Procedure: as §1, §2

splenocytes = assay: Mitogen-induced splenocyte proliferation, 3H-thymidine uptake; assay type: in vivo, mouse; details: percent of response in control mice, FIG. 6c
Procedure: For mitogen-induced cell proliferation [Leshem, B. et al. (1999) J Immunol Methods 223, 249-54], splenocytes (2×10^6 cells/ml) were cultured in the presence of anti-CD3ε (145-2C11), 2.5 μg/ml concanavalin A (Con A, Biomakor, Israel), 2 ng/ml phorbol 12-myristatel3-acetate (PMA, Sigma) combined with 0.2 μM calcium ionophore (Sigma), or in medium alone. Following 48 h of incubation at 37° C., 1 μCi of [^3H]-thymidine was added to each well. Cells were harvested 8 h later using a Tomtec (USA) cell harvester and counted in a MicroBeta scintillation counter (Wallac, Finland).

[6] = Specific serum IgG1 and IgG2a antibodies by ELISA; assay type: in vivo, mouse; details: serum at day +9
Excerpt: FIG. 6A: To determine the type of response, mice were bled at day +9 of the experiment and the titer and isotype of the specific antibodies was established by ELISA. Endpoint titers are expressed as the reciprocal values of the last dilution with an OD of 0.1 at 405 nm above maximal absorbance values of samples collected from non-immunized mice.
as §2

[7] = anti-CD3 and anti-CD28, 60 hours
[8] = activation with PMA and ionophore
[9] = activation with anti-CD3 and anti-CD28

Cl.N [NH4Cl]
ζ protein expression after incubation with lysosome inhibitor [1]: largely restored ζ protein expression

IFN-γ
ζ chain expression in control T cells exposed in vitro (TCR ζ chain [2]): did not affect ζ chain expression

5′-TGACTGTGAAGGTTGGAGATGA-3′ (listed as DNA, chemistry not given here) [mutated CpG-ODNs, ID; NO.2]
percentage of CFSE-labeled splenic T cells which divided 1-5 times (splenic T cells [3]; PMA and ionophore, 60 hours): 80% | percentage of CFSE-labeled splenic T cells which divided 1-5 times (splenic T cells [3]; [7]): 84% | percentage of BrdU+ T cells of total T cells (splenic T cells [4]; activation with ConA): 83% | percentage of BrdU+ T cells of total T cells (splenic T cells [4]; [8]): 57% | percentage of BrdU+ T cells of total T cells (splenic T cells [4]; [9]): 71%

CO/C1=C\C(C)=C\[C@@H](C)[C@@H](O)[C@@H](C)C/C(C)=C/C=C/[C@H](OC)[C@@H]([C@@H](C)[C@@H](O)[C@H](C)[C@@]2(O)C[C@@H](O)[C@H](C)[C@@H](C(C)C)O2)OC1=O [bafilomycin A]
ζ protein expression after incubation with lysosome inhibitor [1]: largely restored ζ protein expression

5′-TGACTGTGAACGTTCGAGATGA-3′ [CpG-ODNs]
ζ chain expression in splenocytes / splenic T cells (TCR ζ chain [5]): significant ζ chain down-regulation | percentage of CFSE-labeled splenic T cells which divided 1-5 times (splenic T cells [3]; PMA and ionophore, 60 hours): 57% | percentage of CFSE-labeled splenic T cells which divided 1-5 times (splenic T cells [3]; [7]): 6% | T cell proliferation by BrdU incorporation (splenic T cells [4]; TCR-mediated stimuli (anti-CD3, Con A), compared to controls): significantly lower response | percentage of BrdU+ T cells of total T cells (splenic T cells [4]; activation with ConA): 39% | percentage of BrdU+ T cells of total T cells (splenic T cells [4]; [8]): 80% | percentage of BrdU+ T cells of total T cells (splenic T cells [4]; [9]): 9%

B1: OVA: chicken ovalbumin adsorbed to Al(OH)3 (Alum), then in PBS; elicits a TH2 response (protein, UniProt P01012 2-386, looked up)
Ovalbumin: GSIGAASMEFCFDVFKELKVHHANENIFYCPIAIMSALAMVYLGAKDSTRTQINKVVRFDKLPGFGDSIEAQCGTSVNVHSSLRDILNQITKPNDVYSFSLASRLYAEERYPILPEYLQCVKELYRGGLEPINFQTAADQARELINSWVESQTNGIIRNVLQPSSVDSQTAMVLVNAIVFKGLWEKAFKDEDTQAMPFRVTEQESKPVQMMYQIGLFRVASMASEKMKILELPFASGTMSMLVLLPDEVSGLEQLESIINFEKLTEWTSSNVMEERKIKVYLPRMKMEEKYNLTSVLMAMGITDVFSSSANLSGISSAESLKISQAVHAAHAEINEAGREVVGSAEAGVDAASVSEEFRADHPFLFCIKHIATNAVLFFGRCVSP
modifications: adsorbed to alum
notes: chicken ovalbumin adsorbed to Al(OH)3 (Alum), then in PBS; elicits a TH2 response
ζ chain expression in splenocytes / splenic T cells (TCR ζ chain [5]): did not induce profound ζ downregulation | IL-10 concentration in chamber exudates (IL-10): no great difference | IFN-γ concentration in chamber exudates (IFN-γ): practically undetectable | function (proliferative response) of T cells in the spleen (splenocytes): normal function | specific serum antibodies, IgG1 and IgG2a isotype [6]: of the IgG1 isotype and not of the IgG2a isotype
